From ChEMBL document CHEMBL4732255, “Evaluation of the antiproliferative activity of 106 marine microbial metabolites against human lung cancer cells and potential antiproliferative mechanism of purpuride G” (Bioorg Med Chem Lett, 2021)

Columns and labels:
A549 [1] = assay: Antiproliferative activity against human A549 cells assessed as reduction in cell viability measured after 72 hrs by sulforhodamine B assay; format: functional, cell-based; details: A549, 72 h
A549 [2] = assay: Antiproliferative activity against human A549 cells assessed as cell viability at 50 uM measured after 72 hrs by sulforhodamine B assay; format: functional; details: read-out: Activity
NCI-H157 [3] = assay: Antiproliferative activity against human NCI-H157 cells assessed as cell viability at 50 uM measured after 72 hrs by sulforhodamine B assay; format: functional; details: read-out: Activity
NCI-H157 [4] = assay: Antiproliferative activity against human NCI-H157 cells assessed as reduction in cell viability measured after 72 hrs by sulforhodamine B assay; format: functional, cell-based; details: NCI-H157, 72 h
U-251 = assay: Antiproliferative activity against human U-251 cells assessed as reduction in cell viability incubated for 72 hrs by sulforhodamine B assay; format: functional, cell-based; details: U-251, 72 h
U-87 MG = assay: Antiproliferative activity against human U-87MG cells assessed as reduction in cell viability incubated for 72 hrs by sulforhodamine B assay; format: functional, cell-based, U-87MG ATCC
HL-60 = assay: Antiproliferative activity against human HL-60 cells assessed as reduction in cell viability incubated for 72 hrs by sulforhodamine B assay; format: functional, cell-based; details: HL-60, 72 h

Row | IC50 (A549 [1]) | IC50 (NCI-H157 [4]) | IC50 (U-251) | IC50 (U-87 MG) | IC50 (HL-60) | SMILES | viability at 50 µM (A549 [2]) | viability at 50 µM (NCI-H157 [3])
1 | 12.7 µM | 15.1 µM | – | – | – | CO[C@@]1(C)N(/C=C/c2ccccc2)C(=O)c2cc3c([nH]c4ccccc43)c(=O)n21 | < 50% | < 50%
2 | 25.2 µM | 19.6 µM | – | – | – | C=C[C@@]1(C)C=C(C)[C@@H]2[C@@H]3[C@H](Oc4ccc(cc4)C[C@]4(OC)C[C@H](C(=O)N4)C(=O)[C@H]31)[C@@H]1[C@@H](C)C[C@@H](C)C[C@]12C | < 50% | < 50%
3 | 20.9 µM | 32.4 µM | – | – | – | CC1=C([C@H](C)[C@@H](C)OC=O)C(=O)C2=C(C1=O)[C@@H]1O[C@H](C)[C@@H](C)c3c(C)c(O)cc(c31)O2 [CITRININ H1] | < 50% | < 50%
4 | 10.6 µM | 7.2 µM | – | – | – | CO[C@@]1(C)N(/C=C\c2ccccc2)C(=O)c2cc3c4ccccc4n(C)c3c(=O)n21 | < 50% | < 50%
5 | 5.7 µM | 2.7 µM | – | – | – | Cc1cc(O)c2c(c1)C(=O)c1cccc(O)c1C2=O [CHRYSOPHANOL] | < 50% | < 50%
6 | 21.2 µM | 11 µM | – | – | – | Cn1c2ccccc2c2cc3n(c(=O)c21)[C@@](C)(O)N(CCc1ccccc1)C3=O | < 50% | < 50%
7 | 12.3 µM | 22.3 µM | – | – | – | C=C[C@@]1(C)C=C(C)[C@@H]2[C@@H]3[C@H](Oc4ccc(cc4)C[C@]45NC(=O)/C(=C(/O)[C@H]31)[C@H]4[C@@H]1C(=O)C(C)=C3[C@H](C)[C@@H](C)O[C@@]3(O)[C@]1(O)O5)[C@@H]1[C@@H](C)C[C@@H](C)C[C@]12C | < 50% | < 50%
8 | 12.9 µM | 9.8 µM | – | – | – | CO[C@@]1(C)N(CCc2ccccc2)C(=O)c2cc3c4ccccc4n(C)c3c(=O)n21 | < 50% | < 50%
9 | 7.3 µM | 6.5 µM | 22.8 µM | 12.4 µM | – | CC1=C[C@@]2(C)[C@@H]3C(=O)[C@]4(C[C@@H]2O)C[C@@](O)(Cc2ccc(cc2)O[C@H]2[C@H]3[C@@H]1[C@]1(C)C[C@H](C)C[C@H](C)[C@@H]21)NC4=O | < 50% | < 50%
10 | 45.9 µM | 27 µM | – | – | – | O=C1c2cc(O)cc(O)c2C(=O)c2c1cc1c(c2O)[C@@H]2CCO[C@@H]2O1 | < 50% | < 50%
11 | 42.9 µM | 41.9 µM | – | – | – | C[C@H]1Oc2c(c(O)c3c4c(c(O)ccc24)OC3=O)C1(C)C | < 50% | < 50%
12 | 18.2 µM | 8.6 µM | – | – | – | CC(=O)c1nc(C(=O)NCCc2ccccc2)cc2c3ccccc3n(C)c12 | < 50% | < 50%
13 | 44.3 µM | 22.9 µM | – | – | – | CO[C@@]1(C)N(C[C@@H](O)c2ccccc2)C(=O)c2cc3c4ccccc4n(C)c3c(=O)n21 | < 50% | < 50%
14 | – | – | – | – | 7.4 µM | CC1=C[C@@]2(C)[C@@H]3C(=O)[C@]4(C[C@@H]2O)C[C@](O)(Cc2ccc(cc2)O[C@H]2[C@H]3[C@@H]1[C@]1(C)C[C@H](C)C[C@H](C)[C@@H]21)NC4=O | – | –
15 | – | – | – | – | 14.9 µM | CC1=C[C@]2(C)[C@H](O)C[C@]34C[C@](O)(Cc5ccc(cc5)O[C@H]5[C@H]([C@H]2C3=O)[C@@H]1[C@]1(C)C[C@H](C)C[C@H](C)[C@@H]51)NC4=O | – | –
16 | 31.6 µM | 20.2 µM | – | – | – | Cc1cc(O)cc(Oc2cc(C)cc(O)c2)c1 [DIORCINOL] | < 50% | < 50%
17 | 21.6 µM | 20.2 µM | – | – | – | CO[C@@]1(C)N(/C=C/c2ccccc2)C(=O)c2cc3c4ccccc4n(C)c3c(=O)n21 | < 50% | < 50%
18 | 38.4 µM | 8.1 µM | – | – | – | CO[C@@]1(C)N(/C=C/c2ccccc2)C(=O)C2=C[C@@]3(C(=O)N(C)c4ccccc43)C(=O)N21 | < 50% | < 50%
19 | – | – | 1.28 µM | 1.06 µM | – | CC1=C[C@]2(C)C(=O)C[C@]34C[C@](O)(Cc5ccc(cc5)O[C@H]5[C@@H]([C@@H]1[C@]1(C)C[C@H](C)C[C@H](C)[C@@H]51)[C@H]2C3=O)NC4=O | – | –
20 | 1.5 µM | 3 µM | – | – | – | COc1cc(O)c2c(c1)C(=O)c1cc(C)cc(O)c1C2=O [PHYSCION] | < 50% | < 50%
21 | 13.2 µM | 17.8 µM | – | – | – | CO[C@@]12Cc3ccc(cc3)O[C@H]3[C@@H]4[C@H]5C(=O)[C@](C[C@@H](O)[C@@]5(C)C=C(C)[C@H]4[C@]4(C)C[C@H](C)C[C@H](C)[C@@H]34)(C1)C(=O)N2 | < 50% | < 50%
22 | 10.3 µM | 38.5 µM | – | – | – | C=C[C@@]1(C)C=C(C)[C@@H]2[C@@H]3[C@H](Oc4ccc(cc4)C[C@@H]4C(=O)NC(=O)[C@@H]4C(=O)[C@H]31)[C@@H]1[C@@H](C)C[C@@H](C)C[C@]12C | < 50% | < 50%
23 | 28.6 µM | 0.9 µM | – | – | – | O=c1ncc2ncn([C@@H]3O[C@@H](CO)[C@H](O)[C@@H]3O)c2[nH]1 | < 50% | < 50%
24 | 48.2 µM | 19.4 µM | – | – | – | CC(=O)c1nc(C(=O)NCCc2ccccc2)cc2c1[nH]c1ccccc12 | < 50% | < 50%

Row | SMILES | IC50 (A549 [1]) | IC50 (NCI-H157 [4]) | IC50 (U-251) | IC50 (U-87 MG) | IC50 (HL-60) | viability at 50 µM (A549 [2]) | viability at 50 µM (NCI-H157 [3])
25 | CC(C)[C@@H](C)/C=C/[C@@H](C)[C@H]1CC[C@H]2C3=CC=C4C[C@@H](O)CC[C@]4(C)[C@H]3CC[C@]12C [ERGOSTEROL] | 19.2 µM | 23.3 µM | – | – | – | < 50% | < 50%
